Counter-ions that a name gives are not always drawn.

Experimental findings from US7781474B2, “Inhibitors of hepatitis C virus replication” (InterMune, Inc., priority 2006, dated 2010) are described below.

This assay has as its target T1, NS3/NS4A-2 (Hepatitis C virus genotype 1a, UniProt P27958).
T1 construct: Recombinant E. coli or Baculovirus full-length NS3 was diluted to 3.33 μM with assay buffer; made in house; host or cells: E. coli or Baculovirus (insect cells)
The assay is described as follows: NS3 inhibition assay (NS3-NS4 protease assay). The format is biochemical, hepatitis C virus (HCV). Conditions: recombinant full-length NS3 (E. coli or Baculovirus) complexed with NS4A-2; RETS1 substrate. Here is the method: NS3 Complex Formation with NS4A-2.
Recombinant E. coli or Baculovirus full-length NS3 was diluted to 3.33 μM with assay buffer and transferred material to an eppendorf tube and place in water bath in 4° C. refrigerator. The appropriate amount of NS4A-2 to 8.3 mM in assay buffer was added to equal the volume of NS3 in step 2.1.1 (conversion factor—3.8 mg/272 μL assay buffer). The material was transferred to an eppendorf tube and place in water bath in 4° C. refrigerator.
After equilibration to 4° C., equal volumes of NS3 and NS4A-2 solutions were combined in an eppendorf tube, mix gently with a manual pipettor, and incubate mixture for 15 minutes in the 4° C. water bath. Final concentrations in the mixture are 1.67 μM NS3, 4.15 mM NS4A-2 (2485-fold molar excess NS4A-2).
After 15 minutes at 4° C., the NS3/NS4A-2 eppendorf tube was removed and place it in a room temperature water bath for 10 minutes. NS3/NS4A-2 was alliquoted at appropriate volumes and store at −80° C. (E. coli NS3 run at 2 nM in assay, aliquot at 25 μL. BV NS3 run at 3 nM in assay, aliquot at 30 μL).
Sample compounds were dissolved to 10 mM in DMSO then diluted to 2.5 mM (1:4) in DMSO. Typically, compounds were added to an assay plate at 2.5 mM concentration, yielding upon dilution a starting concentration of 50 microM in the assay inhibition curve. Compounds were serial diluted in assay buffer to provide test solutions at lower concentrations.
The E. coli. NS3/NS4A-2 was diluted to 4 nM NS3 (1:417.5 of 1.67 μM stock−18 μL 1.67 μM stock+7497 μL assay buffer). The BV NS3/NS4A-2 was diluted to 6 nM NS3 (1:278.3 of 1.67 μM stock−24 μL 1.67 μM stock+6655 μL assay buffer). Using the manual multichannel pipettor, careful not to introduce bubbles into the plate, add 50 μL assay buffer to wells A01-H01 of a black Costar 96-well polypropylene storage plate.
Using the manual multichannel pipettor, careful not to introduce bubbles into the plate, add 50 μL of diluted NS3/NS4A-2 from step 2.2.6 to wells A02-H12 of plate in step 2.2.7. Using the manual multichannel pipettor, careful not to introduce bubbles into the plate, transfer 25 μL of the wells in drug dilution plate in step 2.2.5 to corresponding wells in assay plate in step 2.2.8. Change tips on multichannel pipettor for each row of compounds transferred. Using the manual multichannel pipettor, careful not to introduce bubbles into the plate, mix the wells from the assay plate in step 2.2.9 by aspirating and dispensing 35 μL of the 75 μL in each well five times. Change tips on multichannel pipettor for each row of wells mixed. Cover plate with a polystyrene plate lid and pre-incubate the plate from step 2.2.10 containing NS3 protease and sample compounds 10 minutes at room temperature. While plate from step 2.2.11 is pre-incubating, dilute RETS1 substrate in a 15 mL polypropylene centrifuge tube. Dilute RETS1 substrate to 8 μM (1:80.75 of 646 μM stock−65 μL 646 μM stock+5184 μL assay buffer).
After the plate in step is done pre-incubating, and using the manual multichannel, add 25 μL of substrate to all wells on the plate. Quickly mix the plate as in step 2.2.10, mixing 65 μL of the 100 μL in the wells.
Read the plate in kinetic mode on the Molecular Devices SpectraMax Gemini XS plate reader. Reader settings: Read time: 30 minutes, Interval: 36 seconds, Reads: 51, Excitation λ: 335 nm, Emission λ: 495 nm, cutoff: 475 nm, Automix: off, Calibrate: once, PMT: high, Reads/well: 6, Vmax pts: 21 or 28/51 depending on length of linearity of reaction
IC50s are determined using a four parameter curve fit equation, and converted to Ki's using the following Km's: Full-length E. coli NS3−2.03 μM Full-length BV NS3−1.74 μM
where Ki=IC50/(1+[S]/Km))

T1 sequence (P27958 1027-1657): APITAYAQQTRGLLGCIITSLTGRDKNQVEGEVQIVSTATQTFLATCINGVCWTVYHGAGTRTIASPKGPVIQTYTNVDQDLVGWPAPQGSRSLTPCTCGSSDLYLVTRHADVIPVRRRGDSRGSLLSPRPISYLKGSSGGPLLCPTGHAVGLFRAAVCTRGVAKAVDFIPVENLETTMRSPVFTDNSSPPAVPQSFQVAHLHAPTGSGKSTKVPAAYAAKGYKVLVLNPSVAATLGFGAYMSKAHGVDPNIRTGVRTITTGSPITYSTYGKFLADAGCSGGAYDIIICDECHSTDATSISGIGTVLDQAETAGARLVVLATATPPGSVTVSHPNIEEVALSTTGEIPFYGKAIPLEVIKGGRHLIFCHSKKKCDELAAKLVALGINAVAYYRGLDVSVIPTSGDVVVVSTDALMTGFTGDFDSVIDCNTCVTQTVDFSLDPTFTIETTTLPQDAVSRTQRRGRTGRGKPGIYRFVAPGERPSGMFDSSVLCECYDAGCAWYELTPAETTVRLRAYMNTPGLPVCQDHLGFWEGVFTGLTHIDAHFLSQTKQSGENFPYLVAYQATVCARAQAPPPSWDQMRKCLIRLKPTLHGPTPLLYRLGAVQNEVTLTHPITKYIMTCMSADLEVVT

With `C=C[C@@H]1C[C@]1(NC(=O)C1CN(C(=O)OC(C)(C)C)Cc2c[nH]nc21)C(=O)NS(=O)(=O)C1CC1` (mixture of isomers) [Compound 104, Tert-butyl 7-((1R,2S)-1-(cyclopropylsulfonylcarbamoyl)-2-vinylcyclopropylcarbamoyl)-6,7-dihydro-2H-pyrazolo[4,3-c]pyridine-5(4H)-carboxylate], the IC50 (usually the concentration at which inhibition is half-maximal) fell in the range of 10 to 50 µM.

As for `C=C[C@@H]1C[C@]1(NC(=O)[C@@H]1C[C@@H](OC(=O)N2Cc3cccc(F)c3C2)CN1C(C)=O)C(=O)NS(=O)(=O)C1CC1` [Compound 90, (3R,5S)-1-acetyl-5-((1R,2S)-1-(cyclopropylsulfonylcarbamoyl)-2-vinylcyclopropylcarbamoyl)pyrrolidin-3-yl 4-fluoroisoindoline-2 carboxylate], the IC50 was below 0.1 µM. The value for `C=C[C@@H]1C[C@]1(NC(=O)[C@@H]1C[C@@H](OC(=O)N2Cc3cccc(F)c3C2)CN1C(=O)CNC(=O)OC(C)(C)C)C(=O)NS(=O)(=O)C1CC1` [Compound 91] was 0.1 to 1 µM; that for `O=C(O)CNC(=O)C1CCCc2c[nH]nc21` (stereo not shown) [Compound 101] was 10 to 50 µM. In the case of `O=C(CNC(=O)C1CCCc2c[nH]nc21)NS(=O)(=O)C1CC1` (stereo not shown) [Compound 102] it was 1 to 10 µM; in that of `C=C[C@@H]1C[C@]1(NC(=O)C1CN(C(=O)Cc2ccccc2)Cc2c[nH]nc21)C(=O)NS(=O)(=O)C1CC1` (stereo partly drawn) [Compound 103, N-((1R,2S)-1-(cyclopropylsulfonylcarbamoyl)-2-vinylcyclopropyl)-5-(2-phenylacetyl)-4,5,6,7-tetrahydro-2H-pyrazolo[4,3-c]pyridine-7-carboxamide], 1 to 10 µM. Turning to `CCC[C@H](NC(=O)C1CN(C(=O)Cc2ccccc2)Cc2c[nH]nc21)C(=O)NS(=O)(=O)C1CC1` (stereo partly shown) [Compound 106], the IC50 was in the range of 10 to 50 µM. The value for `CCC[C@H](NC(=O)C1CNCc2c[nH]nc21)C(=O)NS(=O)(=O)C1CC1` (stereo partly shown) [Compound 107] was 10 to 50 µM; that for `O=C(O)CNC(=O)C1CN(C(=O)Cc2ccccc2)Cc2c[nH]nc21` (stereo not shown) [Compound 108] was 1 to 10 µM; that for `O=C(CNC(=O)C1CNCc2c[nH]nc21)NS(=O)(=O)C1CC1` (stereo not shown) [Compound 109] was 10 to 50 µM.

On to `O=C(O)C1CNCc2c[nH]nc21` (stereo not shown) [Compound 110], for which the IC50 lay in the range of 1 to 10 µM. Turning to `C=C[C@@H]1C[C@]1(NC(=O)C1CNCc2c[nH]nc21)C(=O)NS(=O)(=O)C1CC1` (stereo partly drawn) [Compound 111, N-((1R,2S)-1-(cyclopropylsulfonylcarbamoyl)-2-vinylcyclopropyl)-4,5,6,7-tetrahydro-2H-pyrazolo[4,3-c]pyridine-7-carboxamide hydrochloride], the IC50 fell in the range of 10 to 50 µM. As for `O=C(NC1(C(=O)NS(=O)(=O)C2CC2)CCC1)C1CNCc2c[nH]nc21` (stereo not shown) [Compound 112], the IC50 was 1 to 10 µM.
